For 14 compounds, T/C results are on record in PubChem BioAssay AID328 (DTP/NCI, 2004).

Where “and” joins values, the source holds several entries; their conditions need not be identical. Equal values may be shown once. Inconclusive results and toxic doses are left out.

The assay relates to BDF1 mice, P388 leukemia ip, median survival T/C. In words: NCI In Vivo Anticancer Drug Screen. Data for tumor model P388 Leukemia (intraperitoneal) in B6D2F1 (BDF1) mice. To be noted: endpoint: median survival time, higher = longer survival. In a few lines: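 Each value expresses how treatment altered survival: treated-mouse outcome over vehicle-mouse outcome, both groups bearing the transplanted tumour.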

[1] abbreviates: dose: 100.0 mg/kg/injection, schedule: Q04DX002 (ip), vehicle: saline with Tween-80.
[2] abbreviates: dose: 200.0 mg/kg/injection, schedule: Q04DX002 (ip), vehicle: saline with Tween-80.
[3] abbreviates: dose: 100.0 mg/kg/injection, schedule: Q04DX003 (ip), vehicle: saline with Tween-80.
The mark [4] stands for this setting: dose: 200.0 mg/kg/injection, schedule: Q04DX003 (ip), vehicle: saline with Tween-80.
The mark [5] stands for this setting: dose: 400.0 mg/kg/injection, schedule: Q04DX003 (ip), vehicle: saline with Tween-80.
The mark [6] stands for this setting: dose: 30.0 mg/kg/injection, schedule: Q04DX003 (ip), vehicle: saline.
[7] abbreviates: dose: 50.0 mg/kg/injection, schedule: Q01DX009 (ip), vehicle: saline.
Setting [8] is: dose: 100.0 mg/kg/injection, schedule: Q04DX003 (ip), vehicle: saline.
The mark [9] stands for this setting: dose: 50.0 mg/kg/injection, schedule: Q01DX009 (ip), vehicle: saline with Tween-80.
[10] abbreviates: dose: 100.0 mg/kg/injection, schedule: Q01DX009 (ip), vehicle: saline with Tween-80.
The mark [11] stands for this setting: dose: 200.0 mg/kg/injection, schedule: Q01DX009 (ip), vehicle: saline with Tween-80.

As to `CCOC(=S)SCc1cc(C(C)(C)C)c(O)c(C(C)(C)C)c1`, the T/C was 100 % of control under setting [1] and 99 % of control under setting [2].

`COc1ccc(C(=O)c2cccs2)cc1`: the T/C under setting [3] is 100 % of control, the T/C under setting [4] is 100 % of control and the T/C under setting [5] is 86 % of control.

As for `O=P(N1CC1)(N1CC1)N1CCc2ccccc21`, the T/C is 91 % of control (dose: 9.0 mg/kg/injection, schedule: Q01DX009 (ip), vehicle: saline); 104 % of control (dose: 13.0 mg/kg/injection, schedule: Q01DX009 (ip), vehicle: saline); 104 % of control (dose: 20.0 mg/kg/injection, schedule: Q01DX009 (ip), vehicle: saline); 114 % of control under setting [6]; 157 % of control (dose: 33.0 mg/kg/injection, schedule: Q01DX009 (ip), vehicle: saline); 117 % of control and 119 % of control (dose: 44.0 mg/kg/injection, schedule: Q04DX003 (ip), vehicle: saline). Moreover, the T/C is 166 % of control and 173 % of control under setting [7]; 176 % of control (dose: 75.0 mg/kg/injection, schedule: Q01DX009 (ip), vehicle: saline); 170 % of control and 176 % of control under setting [8]; 255 % of control and 195 % of control (dose: 150.0 mg/kg/injection, schedule: Q04DX003 (ip), vehicle: saline); 96 % of control (dose: 200.0 mg/kg/injection, schedule: Q04DX003 (ip), vehicle: saline).

For the compound `CCN1CCC(OC(=O)c2ccccc2)(c2nccc3ccccc23)CC1`, the T/C runs as follows: (dose: 12.5 mg/kg/injection, schedule: Q01DX009 (ip), vehicle: saline with Tween-80) 102 % of control; (dose: 25.0 mg/kg/injection, schedule: Q01DX009 (ip), vehicle: saline with Tween-80) 111 % of control; under setting [9], 124 % of control.

For the compound `C=C1C(C2(C)C(OC(C)=O)CC(=O)OC(C)(COC(C)=O)C2CC(=O)OC)C(OC=O)C(OC(=O)C(O)C(C)CC)C2(C)C(c3ccoc3)CC(=O)C12O` (stereo unspecified), the T/C is 94 % of control (dose: 3.75 mg/kg/injection, schedule: Q01DX009 (ip), vehicle: Klucel (hydroxypropylcellulose) (HPC)) and 93 % of control (dose: 7.5 mg/kg/injection, schedule: Q01DX009 (ip), vehicle: Klucel (hydroxypropylcellulose) (HPC)).

`CC(=O)C1CC2c3ccccc3C1c1ccccc12` (stereo unspecified): the T/C under setting [10] is 95 % of control and the T/C under setting [11] was 87 % of control.

As to `O=S(=O)(CI)OCCCl`, the T/C (dose: 50.0 mg/kg/injection, schedule: Q01DX005 (ip), vehicle: Klucel (hydroxypropylcellulose) (HPC)) was 93 % of control and the T/C (dose: 100.0 mg/kg/injection, schedule: Q01DX005 (ip), vehicle: Klucel (hydroxypropylcellulose) (HPC)) is 110 % of control.

`CCN(Cc1ccccc1)c1ccc(/C=C/c2nccc3ccccc23)cc1`: the T/C by setting is: under setting [1], 116 % of control; under setting [2], 116 % of control; (dose: 266.0 mg/kg/injection, schedule: Q04DX002 (ip), vehicle: saline with Tween-80) 89 % of control; (dose: 400.0 mg/kg/injection, schedule: Q04DX002 (ip), vehicle: saline with Tween-80) 123 % of control; (dose: 600.0 mg/kg/injection, schedule: Q04DX002 (ip), vehicle: saline with Tween-80) 117 % of control.

As to `[O-][N+](=Nc1cccc(Cl)c1)c1cccc(Cl)c1`, the T/C runs as follows: under setting [9], 93 % of control; (dose: 66.0 mg/kg/injection, schedule: Q01DX009 (ip), vehicle: saline with Tween-80) 89 % of control; under setting [10], 93 % of control; (dose: 150.0 mg/kg/injection, schedule: Q01DX009 (ip), vehicle: saline with Tween-80) 90 % of control; under setting [11], 94 % of control.

Turning to `CC1(C)CC2(CC(C)(C)c3cc(O)c(O)cc32)c2cc(O)c(O)cc21`, the T/C runs as follows: (dose: 100.0 mg/kg/injection, schedule: Q04DX003 (ip), vehicle: saline sonified) 109 % of control; (dose: 200.0 mg/kg/injection, schedule: Q04DX003 (ip), vehicle: saline sonified) 104 % of control; (dose: 400.0 mg/kg/injection, schedule: Q04DX003 (ip), vehicle: saline sonified) 100 % of control.

Turning to `O=C1OC(c2ccccc2)=N/C1=C/c1cccs1`, the T/C was 96 % of control (dose: 100.0 mg/kg/injection, schedule: Q01DX009 (ip), vehicle: Klucel (hydroxypropylcellulose) (HPC)); 88 % of control (dose: 200.0 mg/kg/injection, schedule: Q01DX009 (ip), vehicle: Klucel (hydroxypropylcellulose) (HPC)); 92 % of control (dose: 400.0 mg/kg/injection, schedule: Q01DX009 (ip), vehicle: Klucel (hydroxypropylcellulose) (HPC)).

With `C1CN1P1(N2CC2)=NP(N2CC2)(N2CC2)=NP(N2CC2)(N2CC2)=NP(N2CC2)(N2CC2)=N1`, the T/C by setting is: (dose: 0.27 mg/kg/injection, schedule: Q01DX009 (ip), vehicle: saline) 116 % of control; (dose: 0.4 mg/kg/injection, schedule: Q01DX009 (ip), vehicle: saline) 112 % of control; (dose: 0.62 mg/kg/injection, schedule: Q01DX009 (ip), vehicle: saline) 172 % of control; (dose: 0.63 mg/kg/injection, schedule: Q04DX003 (ip), vehicle: saline) 113 % of control; (dose: 1.25 mg/kg/injection, schedule: Q01DX009 (ip), vehicle: saline) 159 % of control; (dose: 1.9 mg/kg/injection, schedule: Q04DX003 (ip), vehicle: saline) 154 % of control. Also, the T/C is 200 % of control (dose: 2.5 mg/kg/injection, schedule: Q01DX009 (ip), vehicle: saline); 166 % of control (dose: 2.5 mg/kg/injection, schedule: Q04DX003 (ip), vehicle: saline); 168 % of control (dose: 2.9 mg/kg/injection, schedule: Q04DX003 (ip), vehicle: saline); 186 % of control (dose: 4.4 mg/kg/injection, schedule: Q04DX003 (ip), vehicle: saline); 219 % of control (dose: 5.0 mg/kg/injection, schedule: Q04DX003 (ip), vehicle: saline); 240 % of control (dose: 6.6 mg/kg/injection, schedule: Q01DX009 (ip), vehicle: saline). Further, the T/C reads like this: (dose: 10.0 mg/kg/injection, schedule: Q04DX003 (ip), vehicle: saline) 225 % of control and 223 % of control; (dose: 13.2 mg/kg/injection, schedule: Q04DX003 (ip), vehicle: saline) 100 % of control; (dose: 13.3 mg/kg/injection, schedule: Q04DX003 (ip), vehicle: saline) 223 % of control; (dose: 15.0 mg/kg/injection, schedule: Q01DX009 (ip), vehicle: saline) 155 % of control; under setting [6], 285 % of control; (dose: 40.0 mg/kg/injection, schedule: Q04DX003 (ip), vehicle: saline) 105 % of control.

In the case of `COB1OB(OC)OB(OC)O1`, the T/C is 104 % of control under setting [10]; 100 % of control under setting [3]; 100 % of control under setting [11]; 100 % of control under setting [4]; 109 % of control (dose: 400.0 mg/kg/injection, schedule: Q01DX009 (ip), vehicle: saline with Tween-80); 100 % of control under setting [5].

As for `COc1cc2c(cc1OC)CC[N+](C)=C2`, the T/C (dose: 3.12 mg/kg/injection, schedule: Q01DX009 (ip), vehicle: saline) is 102 % of control; the T/C (dose: 3.12 mg/kg/injection, schedule: Q04DX003 (ip), vehicle: saline) was 104 % of control; the T/C (dose: 6.25 mg/kg/injection, schedule: Q01DX009 (ip), vehicle: saline) was 105 % of control; the T/C (dose: 6.25 mg/kg/injection, schedule: Q04DX003 (ip), vehicle: saline) was 97 % of control and 122 % of control; the T/C (dose: 12.5 mg/kg/injection, schedule: Q01DX009 (ip), vehicle: saline) was 102 % of control; the T/C (dose: 12.5 mg/kg/injection, schedule: Q04DX003 (ip), vehicle: saline) is 95 % of control and 97 % of control. For the same compound, the T/C (dose: 25.0 mg/kg/injection, schedule: Q01DX009 (ip), vehicle: saline) was 102 % of control; the T/C (dose: 25.0 mg/kg/injection, schedule: Q04DX003 (ip), vehicle: saline) was 91 % of control; the T/C under setting [7] was 91 % of control; the T/C (dose: 50.0 mg/kg/injection, schedule: Q04DX003 (ip), vehicle: saline) was 121 % of control; the T/C under setting [8] is 100 % of control.
